Numbers after ± are expanded uncertainties.
Settings: 101.33 kPa, Liquid; for mass density: Vibrating tube method; for viscosity: Capillary tube (Ostwald / Ubbelohde) method

CCCN.CCCN.O=S(=O)([N-]S(=O)(=O)C(F)(F)F)C(F)(F)F.[Ag+]
mass density (293 K): 1637.5 ± 2.5 kg/m3
viscosity (293.2 K): 46.09 ± 3.7 mPa·s
mass density (298 K): 1632 ± 2.4 kg/m3
viscosity (298.1 K): 36 ± 2.9 mPa·s
mass density (303 K): 1626.3 ± 2.4 kg/m3
viscosity (303.2 K): 31.07 ± 2.5 mPa·s
viscosity (308.2 K): 27.03 ± 2.2 mPa·s
mass density (313 K): 1614.7 ± 2.4 kg/m3
viscosity (313.2 K): 25.28 ± 2 mPa·s
viscosity (318.3 K): 21.28 ± 1.7 mPa·s
mass density (323 K): 1603.5 ± 2.4 kg/m3
viscosity (323.2 K): 18.21 ± 1.5 mPa·s
viscosity (328.2 K): 15.85 ± 1.3 mPa·s
mass density (333 K): 1592.3 ± 2.3 kg/m3
viscosity (333.2 K): 14.84 ± 1.2 mPa·s

— the NIST ThermoML archive (doi:10.1021/je5004669)
